Laboratory results taken from paper PMC11845477, “Exploring the principles behind antibiotics with limited resistance” (Nature Communications, 2025).
Where a SMILES comes first, the peptide text is derived from it. Bridges are numbered along the chain shown (N, C = ends). [ ]: non-standard residue; d: D form. The star is where a group is joined. X1 = NC[C@@H](CC(=O)*)c1cccc(Cl)c1; Dab = NCC[C@H](N)C(=O)O; Dap = NC[C@H](N)C(=O)O

What was measured:
[1] = tested on: E. coli ATCC 25922 (SEN) and E. coli NCTC13846 (MDR); experiment: Frequency-of-resistance (FoR) assay, relative MIC of mutants; type: cell-based, Escherichia coli
Procedure, shortened: (§1)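 First-step resistance is selected by exposing roughly 10^10 cells to each antibiotic on agar for 48 h at 37 °C. Ten colonies from the highest selective concentration then undergo MIC testing by OD600 in MHB, reported relative to the ancestral strain.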

[2] = tested on: A. baumannii ATCC 17978 (SEN) and A. baumannii ATCC BAA-1605 (MDR); experiment: as above; type: cell-based, Acinetobacter baumannii
Procedure, shortened: as §1

[3] = tested on: E. coli BW25113: pUCacrAB; experiment: AcrAB-TolC efflux overexpression screen, relative MIC; type: cell-based, Escherichia coli; details: pUCacrAB vs empty pUC118 control
Procedure, shortened: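 Broth microdilution in MHB (supplemented MS for SCH79797), ten-step antibiotic dilutions, 5 × 10^5 cells/mL, 18 h at 37 °C with shaking; MIC is lowest concentration giving background-corrected OD600 < 0.05. Relative MIC as log2 ratio: ΔacrB vs wild-type; pUCacrAB vs empty pUC118 (plasmid strains under 100 µg/mL ampicillin). Mean of 3 biological replicates.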

[4] = E. coli NCTC 13846 (EC-MDR), evolved line 1
[5] = E. coli NCTC 13846 (EC-MDR), evolved line 1, evolved vs ancestor
[6] = E. coli NCTC 13846 (EC-MDR), evolved line 2
[7] = E. coli NCTC 13846 (EC-MDR), evolved line 2, evolved vs ancestor
[8] = E. coli NCTC 13846 (EC-MDR), evolved line 3
[9] = E. coli NCTC 13846 (EC-MDR), evolved line 3, evolved vs ancestor
[10] = Acinetobacter baumannii ATCC 17978 (AB-SEN), evolved line 1
[11] = Acinetobacter baumannii ATCC 17978 (AB-SEN), evolved line 2
[12] = Acinetobacter baumannii ATCC 17978 (AB-SEN), evolved line 3
[13] = Acinetobacter baumannii ATCC 17978 (AB-SEN), evolved line 1 versus ancestor
[14] = Acinetobacter baumannii ATCC 17978 (AB-SEN), evolved line 2 versus ancestor
[15] = Acinetobacter baumannii ATCC 17978 (AB-SEN), evolved line 3 versus ancestor
[16] = Escherichia coli ATCC 25922 (EC-SEN), evolved line 1 versus ancestor
[17] = Escherichia coli ATCC 25922 (EC-SEN), evolved line 2 versus ancestor
[18] = Escherichia coli ATCC 25922 (EC-SEN), evolved line 3 versus ancestor

CC(C)C[C@@H]1NC(=O)[C@@H](Cc2ccccc2)NC(=O)[C@H](CCN)NC(=O)[C@@H](NC(=O)[C@H](CN)NC(=O)[C@@H](NC(=O)C[C@H](CN)c2cccc(Cl)c2)[C@@H](C)O)CCNC(=O)[C@H]([C@@H](C)O)NC(=O)[C@H](CCN)NC(=O)[C@H](CCN)NC1=O [SPR206] (X1-T[Dap][Dab][Dab][dF]L[Dab][Dab]T; lactam 3-C (inferred); N-terminus assumed)
MIC of evolved line ([1]; E. coli ATCC 25922 (EC-SEN), evolved line 1): 32 µg/mL
Relative MIC ([1]; E. coli ATCC 25922 (EC-SEN), evolved line 1, evolved vs ancestor): 128
MIC of evolved line ([1]; E. coli ATCC 25922 (EC-SEN), evolved line 2): 32 µg/mL
Relative MIC ([1]; E. coli ATCC 25922 (EC-SEN), evolved line 2, evolved vs ancestor): 128
MIC of evolved line ([1]; E. coli ATCC 25922 (EC-SEN), evolved line 3): 32 µg/mL
Relative MIC ([1]; E. coli ATCC 25922 (EC-SEN), evolved line 3, evolved vs ancestor): 128
MIC of evolved line [1, 4]: 64 µg/mL
Relative MIC [1, 5]: 16
MIC of evolved line [1, 6]: 64 µg/mL
Relative MIC [1, 7]: 16
MIC of evolved line [1, 8]: 64 µg/mL
Relative MIC [1, 9]: 16
Relative MIC ([1]; FoR assay, Escherichia coli ATCC 25922 (EC-SEN), evolved line 1): 128
Relative MIC ([1]; FoR assay, Escherichia coli ATCC 25922 (EC-SEN), evolved line 2): 128
Relative MIC ([1]; FoR assay, Escherichia coli ATCC 25922 (EC-SEN), evolved line 3): 128
Relative MIC ([1]; FoR assay, Escherichia coli NCTC 13846 (EC-MDR), evolved line 1): 16
Relative MIC ([1]; FoR assay, Escherichia coli NCTC 13846 (EC-MDR), evolved line 2): 16
Relative MIC ([1]; FoR assay, Escherichia coli NCTC 13846 (EC-MDR), evolved line 3): 16
MIC of evolved line [2, 10]: 0.125 µg/mL
MIC of evolved line [2, 11]: 0.125 µg/mL
MIC of evolved line [2, 12]: 0.125 µg/mL
Relative MIC [2, 13]: 1
Relative MIC [2, 14]: 1
Relative MIC [2, 15]: 1
MIC of evolved line ([2]; Acinetobacter baumannii ATCC BAA 1605 (AB-MDR), evolved line 2): 0.25 µg/mL
MIC of evolved line ([2]; Acinetobacter baumannii ATCC BAA 1605 (AB-MDR), evolved line 1): 0.25 µg/mL
Relative MIC ([2]; Acinetobacter baumannii ATCC BAA 1605 (AB-MDR), evolved line 1 versus ancestor): 2
Relative MIC ([2]; Acinetobacter baumannii ATCC BAA 1605 (AB-MDR), evolved line 2 versus ancestor): 2
MIC of evolved line ([2]; Acinetobacter baumannii ATCC BAA 1605 (AB-MDR), evolved line 3): 0.25 µg/mL
Relative MIC ([2]; Acinetobacter baumannii ATCC BAA 1605 (AB-MDR), evolved line 3 versus ancestor): 2
Relative MIC ([2]; FoR assay, Acinetobacter baumannii ATCC 17978 (AB-SEN), evolved line 1): 1
Relative MIC ([2]; FoR assay, Acinetobacter baumannii ATCC 17978 (AB-SEN), evolved line 2): 1
Relative MIC ([2]; FoR assay, Acinetobacter baumannii ATCC 17978 (AB-SEN), evolved line 3): 1
Relative MIC ([2]; FoR assay, Acinetobacter baumannii ATCC BAA 1605 (AB-MDR), evolved line 1): 2
Relative MIC ([2]; FoR assay, Acinetobacter baumannii ATCC BAA 1605 (AB-MDR), evolved line 2): 2
Relative MIC ([2]; FoR assay, Acinetobacter baumannii ATCC BAA 1605 (AB-MDR), evolved line 3): 2
Relative MIC (log2) ([3]; replicate 1): 0
Relative MIC (log2) ([3]; replicate 2): 0
Relative MIC (log2) ([3]; replicate 3): 0

C[C@@H](O)[C@H]1C(=O)N2C(C(=O)O)=C(S[C@H]3CC[S@@+]([O-])C3)S[C@H]12 [Sulopenem]
MIC of evolved line [1, 4]: 0.0625 µg/mL
Relative MIC [1, 5]: 2
MIC of evolved line [1, 6]: 0.0312 µg/mL
Relative MIC [1, 7]: 1
MIC of evolved line [1, 8]: 0.0312 µg/mL
Relative MIC [1, 9]: 1
MIC of evolved line ([1]; Escherichia coli ATCC 25922 (EC-SEN), evolved line 1): 0.0156 µg/mL
MIC of evolved line ([1]; Escherichia coli ATCC 25922 (EC-SEN), evolved line 2): 0.0156 µg/mL
MIC of evolved line ([1]; Escherichia coli ATCC 25922 (EC-SEN), evolved line 3): 0.0156 µg/mL
Relative MIC [1, 16]: 1
Relative MIC [1, 17]: 1
Relative MIC [1, 18]: 1
MIC of evolved line [2, 10]: 4 µg/mL
MIC of evolved line [2, 11]: 4 µg/mL
MIC of evolved line [2, 12]: 4 µg/mL
Relative MIC [2, 13]: 4
Relative MIC [2, 14]: 4
Relative MIC [2, 15]: 4
Relative MIC (log2) ([3]; replicate 1): 0
Relative MIC (log2) ([3]; replicate 2): 0
Relative MIC (log2) ([3]; replicate 3): 0

O=c1ccc2ncc(=O)n3c2n1C[C@H]3CN1CCC(NCc2cc3c(cn2)OCCC3)CC1 [Gepotidacin]
Relative MIC [1, 5]: 1
Relative MIC [1, 7]: 1
Relative MIC [1, 9]: 1
Relative MIC [1, 16]: 1
Relative MIC [1, 17]: 1
Relative MIC [1, 18]: 1
Relative MIC [2, 13]: 16
Relative MIC [2, 14]: 4
Relative MIC [2, 15]: 16
MIC ([2]; Acinetobacter baumannii, read-out: MIC of evolved line, Acinetobacter baumannii ATCC 17978 (AB-SEN), evolved line 2): 8 µg/mL
Relative MIC (log2) ([3]; replicate 1): 2
Relative MIC (log2) ([3]; replicate 2): 2
Relative MIC (log2) ([3]; replicate 3): 2
